# Measured values: PubChem BioAssay AID330 (DTP/NCI, 2004)
# Values joined by “and” are separate entries in the source; they are usually repeats but may differ in a detail not shown here. Equal entries are not always repeated. Toxic doses and inconclusive results are not listed.
# Test system: P388 leukemia ip, CD2F1 mice, survival T/C
# Assay: NCI In Vivo Anticancer Drug Screen. Data for tumor model P388 Leukemia (intraperitoneal) in CD2F1 (CDF1) mice
# Conditions: endpoint: median survival time, higher = longer survival
# In short: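 Mice carrying the transplanted tumor received test compound or vehicle. Survival was recorded in each group, and the value is the treated-group measurement divided by that of the vehicle-treated control group.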
# [1] = dose: 100.0 mg/kg/injection, schedule: Q04DX002 (ip), vehicle: saline with Tween-80
# [2] = dose: 200.0 mg/kg/injection, schedule: Q04DX002 (ip), vehicle: saline with Tween-80
# [3] = dose: 400.0 mg/kg/injection, schedule: Q04DX002 (ip), vehicle: saline with Tween-80
# [4] = dose: 50.0 mg/kg/injection, schedule: Q01DX005 (ip), vehicle: Klucel (hydroxypropylcellulose) (HPC)
# [5] = dose: 100.0 mg/kg/injection, schedule: Q01DX005 (ip), vehicle: Klucel (hydroxypropylcellulose) (HPC)
# [6] = dose: 50.0 mg/kg/injection, schedule: Q01DX009 (ip), vehicle: saline
# [7] = dose: 100.0 mg/kg/injection, schedule: Q01DX009 (ip), vehicle: saline
# [8] = dose: 200.0 mg/kg/injection, schedule: Q01DX009 (ip), vehicle: saline
# [9] = dose: 200.0 mg/kg/injection, schedule: Q01DX005 (ip), vehicle: Klucel (hydroxypropylcellulose) (HPC)
# [10] = dose: 12.5 mg/kg/injection, schedule: Q01DX009 (ip), vehicle: saline with Tween-80
# [11] = dose: 25.0 mg/kg/injection, schedule: Q01DX009 (ip), vehicle: saline with Tween-80
# [12] = dose: 50.0 mg/kg/injection, schedule: Q01DX009 (ip), vehicle: saline with Tween-80
# [13] = dose: 50.0 mg/kg/injection, schedule: Q01DX005 (ip), vehicle: saline with Tween-80
# [14] = dose: 100.0 mg/kg/injection, schedule: Q01DX005 (ip), vehicle: saline with Tween-80
# [15] = dose: 200.0 mg/kg/injection, schedule: Q01DX005 (ip), vehicle: saline with Tween-80
# [16] = dose: 100.0 mg/kg/injection, schedule: Q01DX001 (ip), vehicle: saline with Tween-80
# [17] = dose: 200.0 mg/kg/injection, schedule: Q01DX001 (ip), vehicle: saline with Tween-80
# [18] = dose: 400.0 mg/kg/injection, schedule: Q01DX001 (ip), vehicle: saline with Tween-80
# [19] = dose: 100.0 mg/kg/injection, schedule: Q01DX009 (ip), vehicle: saline with Tween-80
# [20] = dose: 200.0 mg/kg/injection, schedule: Q01DX009 (ip), vehicle: saline with Tween-80
# [21] = dose: 400.0 mg/kg/injection, schedule: Q01DX009 (ip), vehicle: saline with Tween-80
# [22] = dose: 50.0 mg/kg/injection, schedule: Q01DX009 (ip), vehicle: Klucel (hydroxypropylcellulose) (HPC)
# [23] = dose: 100.0 mg/kg/injection, schedule: Q01DX009 (ip), vehicle: Klucel (hydroxypropylcellulose) (HPC)
# [24] = dose: 200.0 mg/kg/injection, schedule: Q01DX009 (ip), vehicle: Klucel (hydroxypropylcellulose) (HPC)
smiles,measurement,setting,value
C=CCNC(=S)NC(c1ccc(OC)cc1)C(CC)c1ccc(OC)cc1 (configuration not stated),T/C,[1],100 % of control
same,T/C,[2],101 % of control
same,T/C,[3],106 % of control
COc1ccc(C(=O)C(c2ccc(OC)c(OC)c2O)C(OC)OC)c(O)c1 (configuration not stated),T/C,"dose: 75.0 mg/kg/injection, schedule: Q04DX003 (ip), vehicle: Klucel (hydroxypropylcellulose) (HPC)",100 % of control
same,T/C,"dose: 150.0 mg/kg/injection, schedule: Q04DX003 (ip), vehicle: Klucel (hydroxypropylcellulose) (HPC)",98 % of control
same,T/C,"dose: 300.0 mg/kg/injection, schedule: Q04DX003 (ip), vehicle: Klucel (hydroxypropylcellulose) (HPC)",98 % of control
CC(C)CCOCCOCCCN1C(=O)C2C3C=CC(C3)C2C1=O (configuration not stated),T/C,[4],99 % of control
same,T/C,[5],100 % of control
COc1cc2ccc3c(c2cc1OC)CNCC3,T/C,[6],100 % of control
same,T/C,[7],100 % of control
CC(=O)OC1C[C@@](C)(O)[C@@]23O[C@@H]2[C@@H]2O[C@]2(C)C3C2OC(=O)C(C)[C@H]12 (some centres not stated),T/C,"dose: 937.5 micrograms/kg/injection, schedule: Q01DX005 (ip), vehicle: Klucel (hydroxypropylcellulose) (HPC)",98 % of control
same,T/C,"dose: 1875.0 micrograms/kg/injection, schedule: Q01DX005 (ip), vehicle: Klucel (hydroxypropylcellulose) (HPC)",100 % of control
same,T/C,"dose: 3750.0 micrograms/kg/injection, schedule: Q01DX005 (ip), vehicle: Klucel (hydroxypropylcellulose) (HPC)",100 % of control
same,T/C,"dose: 7500.0 micrograms/kg/injection, schedule: Q01DX005 (ip), vehicle: Klucel (hydroxypropylcellulose) (HPC)",97 % of control
CCCCCC(C)(Cl)CCCCC,T/C,[7],101 % of control
same,T/C,[8],106 % of control
same,T/C,"dose: 400.0 mg/kg/injection, schedule: Q01DX009 (ip), vehicle: saline",106 % of control
O=C(CCl)Nc1cccc(CCC(=O)c2ccccc2NC(=O)CCl)c1,T/C,"dose: 15.0 mg/kg/injection, schedule: Q01DX005 (ip), vehicle: saline",102 % of control
same,T/C,"dose: 30.0 mg/kg/injection, schedule: Q01DX005 (ip), vehicle: saline",106 % of control
same,T/C,"dose: 60.0 mg/kg/injection, schedule: Q01DX005 (ip), vehicle: saline with Tween-80",100 % of control
same,T/C,"dose: 60.0 mg/kg/injection, schedule: Q01DX005 (ip), vehicle: saline",100 % of control
CCOC(=O)/C(C#N)=C1/CCCN1C,T/C,"dose: 100.0 mg/kg/injection, schedule: Q04DX003 (ip), vehicle: Klucel (hydroxypropylcellulose) (HPC)",107 % of control
same,T/C,"dose: 200.0 mg/kg/injection, schedule: Q04DX003 (ip), vehicle: Klucel (hydroxypropylcellulose) (HPC)",109 % of control
CCOP1(=S)NNP(=S)(OCC)NN1 (configuration not stated),T/C,[4],96 % of control
same,T/C,[5],93 % of control
same,T/C,[9],104 % of control
CN(C)C(=S)SCN1CCCCC1,T/C,"dose: 6.25 mg/kg/injection, schedule: Q01DX009 (ip), vehicle: saline with Tween-80",100 % of control
same,T/C,[10],101 % of control
same,T/C,[11],100 % of control
same,T/C,[12],95 % of control
CCCC(N)C(=O)NC(Cc1c[nH]c2ccccc12)C(=O)O (configuration not stated),T/C,[13],101 % of control
same,T/C,[14],102 % of control
same,T/C,[15],103 % of control
O=C(O)CCc1c(-c2ccccc2)c(-c2ccccc2)c2n1CCC2,T/C,[16],98 % of control
same,T/C,[17],100 % of control
same,T/C,[18],97 % of control
ClC(Cl)(Cl)C1OCCOCCO1,T/C,[19],109 % of control
same,T/C,[20],100 % of control
same,T/C,[21],116 % of control
CC(=O)[C@@]1(O)CC[C@H]2[C@@H]3C=C(C)C4=CC(=O)CC[C@]4(C)[C@@]3(F)[C@@H](O)C[C@@]21C,T/C,[10],100 % of control
same,T/C,[11],90 % of control
same,T/C,[12],109 % of control
same,T/C,"dose: 100.0 mg/kg/injection, schedule: Q04DX003 (ip), vehicle: saline with Tween-80",91 % of control
same,T/C,"dose: 200.0 mg/kg/injection, schedule: Q04DX003 (ip), vehicle: saline with Tween-80",95 % of control
same,T/C,"dose: 400.0 mg/kg/injection, schedule: Q04DX003 (ip), vehicle: saline with Tween-80",100 % of control
O=S1(=O)CC(c2ccccc2)=NN=C(c2ccccc2)C1,T/C,[22],93 % of control
same,T/C,[23],93 % of control
same,T/C,[24],88 % of control
O=C(NC(=S)c1ccc(Cl)cc1)Nc1ccccc1,T/C,[11],99 % of control
same,T/C,[12],94 % of control
same,T/C,[19],99 % of control
CC1=C(C)C(=O)C(C(C)(C)CC(=O)N(C)/N=N/c2nc[nH]c2C(N)=O)=C(C)C1=O,T/C,[14],155 % of control
same,T/C,[15],174 % of control
CCOC(=O)CC1=NC(=Nc2ccc(Cl)c(Cl)c2)SC1,T/C,[13],103 % of control
same,T/C,[14],104 % of control
same,T/C,[15],100 % of control
O=P(O/C(=C\c1ccccc1)c1ccccc1)(c1ccccc1)c1ccccc1,T/C,"dose: 60.0 mg/kg/injection, schedule: Q01DX005 (ip), vehicle: Klucel (hydroxypropylcellulose) (HPC)",91 % of control
same,T/C,"dose: 120.0 mg/kg/injection, schedule: Q01DX005 (ip), vehicle: Klucel (hydroxypropylcellulose) (HPC)",90 % of control
same,T/C,"dose: 240.0 mg/kg/injection, schedule: Q01DX005 (ip), vehicle: Klucel (hydroxypropylcellulose) (HPC)",90 % of control
C=C1OC(C2CCCCC2)=C(C(=O)OCC)C1C (configuration not stated),T/C,[16],100 % of control
same,T/C,[17],94 % of control
same,T/C,[18],100 % of control
CC(=N\O)/C(C)=N/Nc1ccccc1Cl,T/C,[6],98 % of control
same,T/C,[7],104 % of control
same,T/C,[8],89 % of control
COc1cc2c(c(OC)c1OC)-c1cc3c(cc1C(OC1OC4COC(C)OC4C(O)C1O)C1COC(=O)C1C2)OCO3 (configuration not stated),T/C,"dose: 17.5 mg/kg/injection, schedule: Q01DX005 (ip), vehicle: Klucel (hydroxypropylcellulose) (HPC)",103 % of control
same,T/C,"dose: 35.0 mg/kg/injection, schedule: Q01DX005 (ip), vehicle: Klucel (hydroxypropylcellulose) (HPC)",101 % of control
same,T/C,"dose: 70.0 mg/kg/injection, schedule: Q01DX005 (ip), vehicle: Klucel (hydroxypropylcellulose) (HPC)",119 % of control
same,T/C,"dose: 140.0 mg/kg/injection, schedule: Q01DX005 (ip), vehicle: Klucel (hydroxypropylcellulose) (HPC)",119 % of control
CC(C)=CC(=O)O,T/C,[12],99 % of control
same,T/C,[19],101 % of control
same,T/C,[20],100 % of control
same,T/C,[21],90 % of control
COc1ccc2c(c1)Sc1c(Cl)c3c(c(Cl)c1=N2)Sc1cc(OC)ccc1N=3,T/C,[1],102 % of control
same,T/C,[2],112 % of control
same,T/C,[3],118 % of control
CCCCCCCCCCCCOC(=O)c1ccc(N)cc1,T/C,[22],98 % of control
same,T/C,[23],101 % of control
same,T/C,[24],95 % of control
COc1ccc(C2=C(c3ccccc3)C(=O)C3(c4ccccc4)CC23c2ccc(OC)cc2)cc1 (configuration not stated),T/C,[4],97 % of control
same,T/C,[5],89 % of control
same,T/C,[9],92 % of control
O=C1CCC2CCCCC2C1 (configuration not stated),T/C,[22],97 % of control
same,T/C,[23],104 % of control
same,T/C,[24],88 % of control
COC(=O)C(NC(=O)C(Cc1c[nH]c2ccccc12)NC(=O)OC(C)(C)C)C(C)C (configuration not stated),T/C,"dose: 12.5 mg/kg/injection, schedule: Q01DX009 (ip), vehicle: other",96 % of control
same,T/C,"dose: 25.0 mg/kg/injection, schedule: Q01DX009 (ip), vehicle: other",90 % of control
same,T/C,"dose: 50.0 mg/kg/injection, schedule: Q01DX009 (ip), vehicle: other",91 % of control
same,T/C,"dose: 100.0 mg/kg/injection, schedule: Q01DX009 (ip), vehicle: other",109 % of control
same,T/C,"dose: 200.0 mg/kg/injection, schedule: Q01DX009 (ip), vehicle: other",114 % of control
